Structures are written as SMILES.

The term melting point denotes the temperature, or range, at which the solid turns liquid.

Take `COC[C@@H]1CN(CCN2CCN(C(=O)c3cc(C(F)(F)F)cc(C(F)(F)F)c3)[C@H](Cc3ccc4ccccc4c3)C2)CCO1.Cl.Cl`: the melting point was in the range of 145 to 148 °C.
Next, `Cl.Cl.O=C(c1cc(C(F)(F)F)cc(C(F)(F)F)c1)N1CCN(Cc2cccnc2)C[C@H]1Cc1ccc(Cl)cc1`: 220 to 228 °C (dec.); `Cl.Cl.O=C(c1cc(C(F)(F)F)cc(C(F)(F)F)c1)N1CCN(Cc2cccnc2)C[C@H]1Cc1ccc2ccccc2c1`: 198 to 208 °C.
Next, `COc1cc(C(=O)N2CCN(CCCc3cccnc3)C[C@H]2Cc2ccc(Cl)c(O)c2)cc(C(F)(F)F)c1.Cl.Cl`: 90 to 110 °C; `COC[C@@H]1CN(CCN2CCN(C(=O)c3cc(-c4ccncc4)cc(C(F)(F)F)c3)[C@H](Cc3ccc(C)c(O)c3)C2)CCO1.Cl.Cl.Cl`: 169 to 173 °C.
For `COC[C@@H]1CN(CCN2CCN(C(=O)c3cc(C(F)(F)F)cc(S(C)(=O)=O)c3)[C@H](Cc3ccc(C)c(O)c3)C2)CCO1.Cl.Cl`, the melting point lay in the range of 173.5 to 178 °C.
In the case of `Cl.Cl.Cl.O=C(c1cc([N+](=O)[O-])cc(C(F)(F)F)c1)N1CCN(CCN2CCc3ncccc3C2)C[C@H]1Cc1ccc(Cl)cc1`, the melting point lay within 221 to 228 °C.
In turn, `CNc1cc(C(=O)N2CCN(CCN3CCc4ncccc4C3)C[C@H]2Cc2ccc(Cl)cc2)cc(C(F)(F)F)c1.Cl.Cl.Cl` returned a melting point of 199 to 245 °C.
Compound `CSc1cc(C(=O)N2CCN(CCN3CCc4ncccc4C3)C[C@H]2Cc2ccc(Cl)cc2)cc(C(F)(F)F)c1.Cl.Cl.Cl` returned a melting point of 182 to 195 °C.
In the case of `Cl.Cl.Cl.O=C(c1cc(Cl)cc(C(F)(F)F)c1)N1CCN(CCN2CCc3ncccc3C2)C[C@H]1Cc1ccc(Cl)cc1` it was 130.6 to 135.7 °C; in that of `Cc1ccc(C[C@@H]2CN(Cc3csc(N(C)C)n3)CCN2C(=O)c2cc(C(F)(F)F)cc(C(F)(F)F)c2)cc1O.Cl.Cl`, 162 to 165 °C; in that of `CNc1noc(CN2CCN(C(=O)c3cc(C(F)(F)F)cc(C(F)(F)F)c3)[C@H](Cc3ccc(C)c(O)c3)C2)n1.Cl.Cl`, 145 to 160 °C.
Next, `Cl.Cl.O=C(c1cc(C(F)(F)F)cc(C(F)(F)F)c1)N1CCN(CCCc2cccnc2)C[C@H]1Cc1ccc(C(F)(F)F)cc1`: 64 to 74 °C; `COC[C@@H]1CN(CCN2CCN(C(=O)c3cc(C(F)(F)F)cc(C(F)(F)F)c3)[C@H](Cc3ccc(C)c(NCN4C(=O)CCC4O)c3)C2)CCO1.Cl.Cl.Cl` (stereo partly shown): 163 to 176 °C.
Regarding `COC[C@@H]1CN(CCN2CCN(C(=O)c3cc(C(F)(F)F)cc(C(F)(F)F)c3)[C@H](Cc3ccc(C)c(N4CCOCC4)c3)C2)CCO1.Cl.Cl.Cl`, the melting point fell in the range of 150 to 170 °C.
Turning to `COc1cc(C[C@@H]2CN(CCN3CCOC(C)(C)C3)CCN2C(=O)c2cc(C(F)(F)F)cc(C(F)(F)F)c2)ccc1F.Cl.Cl`, the melting point lay in the range of 152 to 162 °C.
Next, `COC[C@@H]1CN(CCN2CCN(C(=O)c3cc(C(F)(F)F)cc(C(F)(F)F)c3)[C@H](Cc3ccc(F)c(OC)c3)C2)[C@@H](C)CO1.Cl.Cl`: 140 to 164 °C; `COC[C@H]1CN(CCN2CCN(C(=O)c3cc(C(F)(F)F)cc(C(F)(F)F)c3)[C@H](Cc3ccc(F)c(OC)c3)C2)CCO1.Cl.Cl`: 139 to 148 °C; `CO[C@H]1CN(CCN2CCN(C(=O)c3cc(C(F)(F)F)cc(C(F)(F)F)c3)[C@H](Cc3ccc(Cl)c(O)c3)C2)C[C@@H]1OC.Cl.Cl`: 150 to 155 °C.
Compound `COc1cc(C[C@@H]2CN(CCN3CCC[C@H]3CO)CCN2C(=O)c2cc(C(F)(F)F)cc(C(F)(F)F)c2)ccc1F.Cl.Cl` yielded a melting point of 198 to 201 °C.
Consider `COc1cc(C[C@@H]2CN(CCN3CCc4ncccc4C3)CCN2C(=O)c2cc(SC)cc(C(F)(F)F)c2)ccc1F.Cl.Cl.Cl`, for which the melting point lay within 143.3 to 147.5 °C.
In the case of `COC[C@@H]1CN(CCN2CCN(C(=O)c3cc(Cl)cc(C(F)(F)F)c3)[C@H](Cc3ccc(F)c(OC)c3)C2)CCO1.Cl.Cl` it was 139 to 142 °C.
Next, `Cl.Cl.O=C(c1cc(C(F)(F)F)cc(C(F)(F)F)c1)N1CCN(Cc2c[nH]c3ncccc23)C[C@H]1Cc1ccc(Cl)c(O)c1`: 197 to 200 °C; `COC[C@@H]1CN(CCN2CCN(C(=O)c3cc(C(F)(F)F)cc(C(F)(F)F)c3)[C@H](Cc3ccc(Cl)c(OC)c3)C2)CCO1.Cl.Cl`: 145 to 149 °C.
Next, `COc1cc(C[C@@H]2CN(CC#CCN3CCOCC3(C)C)CCN2C(=O)c2cc(C(F)(F)F)cc(C(F)(F)F)c2)ccc1F.Cl.Cl`: 125 to 130 °C; `COc1cc(C[C@@H]2CN(CCN3C[C@@H](C)O[C@@H](C)C3)CCN2C(=O)c2cc(C(F)(F)F)cc(C(F)(F)F)c2)ccc1F.Cl.Cl`: 205 to 208 °C.
`Cl.Cl.Cl.O=C(c1cc(C(F)(F)F)cc(C(F)(F)F)c1)N1CCN(CCN2CCc3ncccc3C2)C[C@H]1Cc1ccc(F)c(O)c1` registered a melting point of 240 to 241 °C.
Take `Cl.Cl.O=C(c1cc(C(F)(F)F)cc(C(F)(F)F)c1)N1CCN(CCCc2cccnc2)C[C@H]1Cc1ccc(F)c(F)c1`: the melting point was in the range of 215 to 220 °C.
Next, `COc1cc(C[C@@H]2CN(CCN3CCc4ncccc4C3)CCN2C(=O)c2cc(C(F)(F)F)cc(C(F)(F)F)c2)ccc1C(F)(F)F.Cl.Cl.Cl`: 195 to 200 °C.
In turn, `C[C@@H]1CN(CCN2CCN(C(=O)c3cc(C(F)(F)F)cc(C(F)(F)F)c3)[C@H](Cc3ccc(C(F)(F)F)cc3)C2)C[C@H](C)O1.Cl.Cl` had a melting point of 148 to 159 °C.
In the case of `Cl.Cl.O=C(c1cc(C(F)(F)F)cc(C(F)(F)F)c1)N1CCN(CCN2CCC(F)(F)CC2)C[C@H]1Cc1ccc(C(F)(F)F)cc1` it was 209 to 253 °C; in that of `Cl.Cl.O=C(c1cc(C(F)(F)F)cc(C(F)(F)F)c1)N1CCN(Cc2cccnc2)C[C@H]1Cc1ccc(C(F)(F)F)cc1`, 198 to 223 °C; in that of `CC1(C)COCCN1CC#CCN1CCN(C(=O)c2cc(C(F)(F)F)cc(C(F)(F)F)c2)[C@H](Cc2ccc(Cl)c(O)c2)C1.Cl.Cl`, 181 to 186 °C.
In the case of `Cl.Cl.Cl.O=C(c1cc(C(F)(F)F)cc(C(F)(F)F)c1)N1CCN(CCN2CCc3ncccc3C2)C[C@H]1Cc1ccc(Cl)cc1` it was 172 to 203 °C (dec.); in that of `COc1cc(C(=O)N2CCN(CCN3C[C@@H](C)O[C@@H](C)C3)C[C@H]2Cc2ccc(Cl)cc2)cc(C(F)(F)F)c1.Cl.Cl`, 90 to 120 °C.
Next, `Cl.Cl.Cl.O=C(c1cc(C(F)(F)F)cc(C(F)(F)F)c1)N1CCN(CCN2CCc3ncccc3C2)C[C@H]1Cc1ccc(F)cc1`: 155.5 to 170.1 °C.
In turn, `COc1cc(C(=O)N2CCN(CC#CCN3CCOCC3(C)C)C[C@H]2Cc2ccc(F)cc2)cc(C(F)(F)F)c1.Cl.Cl` registered a melting point of 137.5 to 140.7 °C.
As for `Cl.Cl.Cl.O=C(c1cc(C(F)(F)F)cc(C(F)(F)F)c1)N1CCN(CCN2CCc3ncccc3C2)C[C@H]1Cc1ccc2ccccc2c1`, the melting point fell in the range of 189 to 194 °C.
In the case of `COC[C@@H]1CN(CCN2CCN(C(=O)c3cc(OC)cc(C(F)(F)F)c3)[C@H](Cc3ccc4ccccc4c3)C2)CCO1.Cl.Cl` it was 134 to 140 °C.
Next, `COc1cc(C(=O)N2CCN(CCN3CCC(F)(F)CC3)C[C@H]2Cc2c[nH]c3ccccc23)cc(C(F)(F)F)c1.Cl.Cl`: 130 to 140 °C.

Source of the values: US7166598B2, “Piperazine derivatives” (Astellas Pharma Inc., priority 1998, dated 2007).
